Experimental data: ChEMBL document CHEMBL1909046, “DrugMatrix in vitro pharmacology data”

Key:
Estrogen receptor = target: T1, Estrogen receptor (Homo sapiens, UniProt P03372); test: biochemical
T1 sequence (P03372 whole entry): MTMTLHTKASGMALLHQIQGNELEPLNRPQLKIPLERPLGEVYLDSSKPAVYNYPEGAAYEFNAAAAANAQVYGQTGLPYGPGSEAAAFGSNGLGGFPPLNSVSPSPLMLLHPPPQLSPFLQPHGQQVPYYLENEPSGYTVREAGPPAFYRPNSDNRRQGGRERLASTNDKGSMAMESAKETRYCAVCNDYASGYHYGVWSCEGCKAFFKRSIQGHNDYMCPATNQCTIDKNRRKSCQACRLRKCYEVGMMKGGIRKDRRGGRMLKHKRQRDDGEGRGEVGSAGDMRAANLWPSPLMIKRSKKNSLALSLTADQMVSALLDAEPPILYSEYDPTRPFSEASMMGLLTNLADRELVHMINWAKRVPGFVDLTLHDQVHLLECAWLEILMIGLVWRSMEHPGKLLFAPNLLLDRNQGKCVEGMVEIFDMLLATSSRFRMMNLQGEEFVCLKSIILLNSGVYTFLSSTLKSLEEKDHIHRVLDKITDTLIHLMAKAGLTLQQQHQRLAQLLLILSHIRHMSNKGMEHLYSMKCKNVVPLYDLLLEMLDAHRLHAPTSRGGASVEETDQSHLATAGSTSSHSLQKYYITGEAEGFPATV

[1] = target: Voltage-gated inwardly rectifying potassium channel KCNH2 (Homo sapiens, UniProt Q12809)
Sequence of Voltage-gated inwardly rectifying potassium channel KCNH2 (Q12809 whole entry): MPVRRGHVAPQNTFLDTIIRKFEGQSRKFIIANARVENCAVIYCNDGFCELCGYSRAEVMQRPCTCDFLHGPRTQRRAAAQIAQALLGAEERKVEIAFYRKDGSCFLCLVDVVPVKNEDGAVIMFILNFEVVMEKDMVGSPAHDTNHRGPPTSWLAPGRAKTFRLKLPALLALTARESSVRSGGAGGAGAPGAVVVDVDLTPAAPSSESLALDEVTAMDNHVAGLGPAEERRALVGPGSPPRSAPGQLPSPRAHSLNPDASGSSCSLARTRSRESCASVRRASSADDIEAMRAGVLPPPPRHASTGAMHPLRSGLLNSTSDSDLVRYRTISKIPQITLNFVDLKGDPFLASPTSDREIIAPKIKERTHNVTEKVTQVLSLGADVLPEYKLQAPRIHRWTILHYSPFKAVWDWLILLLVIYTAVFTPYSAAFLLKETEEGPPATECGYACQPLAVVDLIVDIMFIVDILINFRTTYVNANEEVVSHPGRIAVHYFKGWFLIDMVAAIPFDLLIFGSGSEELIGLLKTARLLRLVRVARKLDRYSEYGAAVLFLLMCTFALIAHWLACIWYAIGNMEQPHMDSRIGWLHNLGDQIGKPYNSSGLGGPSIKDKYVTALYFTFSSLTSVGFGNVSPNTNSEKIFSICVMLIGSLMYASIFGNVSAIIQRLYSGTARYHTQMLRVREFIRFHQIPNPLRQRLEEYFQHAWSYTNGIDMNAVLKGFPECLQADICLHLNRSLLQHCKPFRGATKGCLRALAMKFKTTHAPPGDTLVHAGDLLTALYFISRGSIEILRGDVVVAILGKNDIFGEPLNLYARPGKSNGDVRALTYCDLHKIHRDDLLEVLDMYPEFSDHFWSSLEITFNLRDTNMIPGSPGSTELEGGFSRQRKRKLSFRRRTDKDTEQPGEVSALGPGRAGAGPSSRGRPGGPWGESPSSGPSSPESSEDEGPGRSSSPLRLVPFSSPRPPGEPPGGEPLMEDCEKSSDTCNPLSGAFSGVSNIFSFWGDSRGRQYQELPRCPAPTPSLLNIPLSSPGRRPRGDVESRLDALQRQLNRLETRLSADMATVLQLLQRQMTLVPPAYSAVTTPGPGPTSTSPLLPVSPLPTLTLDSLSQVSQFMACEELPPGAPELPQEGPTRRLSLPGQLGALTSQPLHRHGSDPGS

Cytochrome P450 3A4 = Cytochrome P450 3A4 (Homo sapiens, UniProt P08684)
Sequence of Cytochrome P450 3A4 (P08684 whole entry): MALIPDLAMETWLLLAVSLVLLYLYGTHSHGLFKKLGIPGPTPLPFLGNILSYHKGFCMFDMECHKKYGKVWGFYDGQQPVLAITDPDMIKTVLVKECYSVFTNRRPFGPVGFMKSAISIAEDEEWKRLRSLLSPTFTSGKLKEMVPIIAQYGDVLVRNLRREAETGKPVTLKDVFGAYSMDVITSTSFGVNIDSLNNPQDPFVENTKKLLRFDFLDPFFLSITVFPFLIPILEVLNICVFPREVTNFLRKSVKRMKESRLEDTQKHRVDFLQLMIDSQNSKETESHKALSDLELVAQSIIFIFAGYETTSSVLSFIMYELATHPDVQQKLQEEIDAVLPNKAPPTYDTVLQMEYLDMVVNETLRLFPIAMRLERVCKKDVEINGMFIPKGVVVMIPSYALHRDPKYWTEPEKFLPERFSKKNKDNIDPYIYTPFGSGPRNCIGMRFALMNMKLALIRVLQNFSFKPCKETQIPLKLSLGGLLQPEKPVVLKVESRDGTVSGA

Androgen receptor = target: T2, Androgen receptor (Rattus norvegicus, UniProt P15207)
T2 sequence (P15207 whole entry): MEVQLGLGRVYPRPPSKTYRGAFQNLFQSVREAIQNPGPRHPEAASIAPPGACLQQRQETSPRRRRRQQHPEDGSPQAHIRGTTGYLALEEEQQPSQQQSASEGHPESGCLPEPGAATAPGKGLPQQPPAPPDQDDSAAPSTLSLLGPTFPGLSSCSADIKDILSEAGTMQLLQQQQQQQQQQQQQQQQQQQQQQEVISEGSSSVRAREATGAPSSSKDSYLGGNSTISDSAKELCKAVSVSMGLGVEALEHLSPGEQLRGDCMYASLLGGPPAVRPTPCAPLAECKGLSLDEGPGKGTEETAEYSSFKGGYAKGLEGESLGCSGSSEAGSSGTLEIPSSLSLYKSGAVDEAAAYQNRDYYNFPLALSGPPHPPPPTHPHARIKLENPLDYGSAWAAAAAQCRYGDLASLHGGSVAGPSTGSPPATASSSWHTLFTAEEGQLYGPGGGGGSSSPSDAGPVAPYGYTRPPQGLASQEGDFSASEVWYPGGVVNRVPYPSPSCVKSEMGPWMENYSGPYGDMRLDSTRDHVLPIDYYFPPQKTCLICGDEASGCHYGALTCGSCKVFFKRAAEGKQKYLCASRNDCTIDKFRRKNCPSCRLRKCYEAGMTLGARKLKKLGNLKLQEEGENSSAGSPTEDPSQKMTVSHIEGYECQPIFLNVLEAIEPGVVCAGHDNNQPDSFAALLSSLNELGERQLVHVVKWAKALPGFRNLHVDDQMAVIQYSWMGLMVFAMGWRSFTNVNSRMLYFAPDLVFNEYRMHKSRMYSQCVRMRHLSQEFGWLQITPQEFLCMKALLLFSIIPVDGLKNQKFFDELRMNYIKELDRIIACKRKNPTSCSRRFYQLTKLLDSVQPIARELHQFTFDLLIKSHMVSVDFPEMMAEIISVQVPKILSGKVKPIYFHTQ

Glucocorticoid receptor = target: T3, Glucocorticoid receptor (Homo sapiens, UniProt P04150); test: biochemical
T3 sequence (P04150 whole entry): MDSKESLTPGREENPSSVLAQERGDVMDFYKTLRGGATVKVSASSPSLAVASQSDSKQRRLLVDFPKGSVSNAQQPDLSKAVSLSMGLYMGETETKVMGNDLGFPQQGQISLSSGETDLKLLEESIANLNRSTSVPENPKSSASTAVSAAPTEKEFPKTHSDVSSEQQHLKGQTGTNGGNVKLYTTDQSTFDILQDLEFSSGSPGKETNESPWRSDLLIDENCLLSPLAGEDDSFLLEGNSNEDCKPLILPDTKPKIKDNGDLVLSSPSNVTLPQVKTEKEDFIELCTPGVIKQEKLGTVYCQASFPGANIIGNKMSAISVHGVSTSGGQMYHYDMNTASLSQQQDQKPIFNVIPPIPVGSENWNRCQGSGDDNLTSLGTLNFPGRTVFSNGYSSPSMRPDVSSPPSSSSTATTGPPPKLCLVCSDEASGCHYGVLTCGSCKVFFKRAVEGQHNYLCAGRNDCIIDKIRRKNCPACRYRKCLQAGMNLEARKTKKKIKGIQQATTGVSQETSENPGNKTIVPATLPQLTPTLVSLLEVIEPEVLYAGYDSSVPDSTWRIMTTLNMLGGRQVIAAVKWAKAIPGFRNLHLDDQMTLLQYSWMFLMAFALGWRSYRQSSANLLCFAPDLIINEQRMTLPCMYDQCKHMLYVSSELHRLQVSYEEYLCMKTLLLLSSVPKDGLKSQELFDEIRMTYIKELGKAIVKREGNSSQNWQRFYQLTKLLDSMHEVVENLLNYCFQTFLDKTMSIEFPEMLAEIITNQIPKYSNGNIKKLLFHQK

SMILES: C#C[C@]1(O)CC[C@H]2[C@@H]3[C@H](C)CC4=C(CCC(=O)C4)[C@H]3CC[C@@]21C [TIBOLONE]
- IC50 (Estrogen receptor): 433 nM
- Ki (Estrogen receptor): 124 nM

SMILES: Cc1cc2c(s1)Nc1ccccc1N=C2N1CCN(C)CC1 [OLANZAPINE]
- IC50 [1]: 100000 nM

SMILES: CC[C@H](C)[C@@H](CO[C@@H](Cc1ccccc1)C(=O)N[C@@H](CCS(C)(=O)=O)C(=O)OC(C)C)NC[C@@H](N)CS
- IC50 (Cytochrome P450 3A4): 3000 nM

SMILES: CCOC(=O)C1=C(C)NC(C)=C(C(=O)OCC)C1c1ccccc1/C=C/C(=O)OC(C)(C)C [LACIDIPINE]
- IC50 (Androgen receptor): 3920 nM
- Ki (Androgen receptor): 2610 nM

SMILES: CC(=O)O[C@]1(C(C)=O)CC[C@H]2[C@@H]3C[C@H](C)C4=CC(=O)CC[C@]4(C)[C@H]3CC[C@@]21C [MEDROXYPROGESTERONE ACETATE]
- IC50 (Glucocorticoid receptor): 19 nM
- Ki (Glucocorticoid receptor): 8.64 nM
